# Reference: patent US8263622B2, “Fused-ring derivative and medical application of same” (Kissei Pharmaceutical Co., Ltd., priority 2008, dated 2012)
# Tests used:
# [1] = target: T1, Xanthine oxidase (from bovine milk, Sigma) (Bos taurus, UniProt P80457); assay: Xanthine oxidase inhibitory activity; assay type: biochemical; conditions: xanthine substrate, absorbance at 290 nm, 10 minutes at room temperature
# T1 construct: Xanthine oxidase (from bovine milk, Sigma); purchased Sigma; host or cells: bovine milk
# Protocol: (1) Preparation of Test Compounds
# Test compounds were dissolved in DMSO (Wako) at 40 mM concentration and then diluted to intended concentrations with phosphate-buffered saline (PBS).
# (2) Method for Measurement
# Xanthine oxidase (from bovine milk, Sigma) was prepared with phosphate-buffered saline (PBS) at 0.02 units/mL, and then the solution was added to 96 well plates at 50 μL/well. In addition, test compounds diluted with PBS were added at 50 μL/well. Xanthine (Wako) at 200 μM prepared with PBS was added at 100 μL/well, and the reaction was measured for 10 minutes at room temperature. Absorbance at 290 nm was measured using a microplate reader SpectraMax Plus 384 (Molecular device). The absorbance under a condition without xanthine is 0%, and control without test compounds is 100%. Fifty % inhibitory concentration (IC50) of test compounds was calculated (Table 11). Ex. No. in the table indicates example number.
# [2] = target: T2, human URAT1 (Homo sapiens, UniProt Q96S37); assay: Inhibitory activity of uric acid transport with human URAT1 expressing cells; assay type: cell-based; conditions: COS-7; concentration of 100 μM; 14C-uric acid uptake (20 μM) in COS7 cells transiently expressing human URAT1, 5 minutes, 37° C.; read-out: Percent inhibition
# T2 construct: expressed in transfected cells; host or cells: COS7 cells (RIKEN CELL BANK RCB0539), transient, pcDNA3.1
# T2 sequence (Q96S37 1-553): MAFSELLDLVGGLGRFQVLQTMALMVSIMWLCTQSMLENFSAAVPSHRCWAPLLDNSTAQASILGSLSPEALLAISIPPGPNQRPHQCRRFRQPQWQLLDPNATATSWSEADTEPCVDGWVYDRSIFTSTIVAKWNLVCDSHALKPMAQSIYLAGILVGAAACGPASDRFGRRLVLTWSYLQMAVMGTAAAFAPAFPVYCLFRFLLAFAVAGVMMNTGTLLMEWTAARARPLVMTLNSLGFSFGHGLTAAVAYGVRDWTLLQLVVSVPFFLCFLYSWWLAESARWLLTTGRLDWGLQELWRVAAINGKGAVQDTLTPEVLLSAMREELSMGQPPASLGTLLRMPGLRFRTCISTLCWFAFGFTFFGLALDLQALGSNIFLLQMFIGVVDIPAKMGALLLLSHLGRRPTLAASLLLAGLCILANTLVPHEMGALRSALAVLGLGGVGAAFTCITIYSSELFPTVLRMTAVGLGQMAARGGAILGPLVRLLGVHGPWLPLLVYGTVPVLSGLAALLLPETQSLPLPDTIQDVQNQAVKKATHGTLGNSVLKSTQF
# Protocol: (1) Preparation of Transiently Human URAT1 Expressing Cells
# Full length human URAT1 cDNA (NCBI Accession No. NM_144585) was subcloned into expression vector, pcDNA3.1 (Invitrogen). Human URAT1 expression vector was transfected into COS7 cells (RIKEN CELL BANK RCB0539) using Lipofectamine 2000 (Invitrogen). COS7 cells were seeded in collagen-coated 24 well plates (Japan Becton Dickinson) at 90-95% confluency and cultured in D-MEM culture medium (Invitrogen) containing 10% fetal bovine serum (Sanko Junyaku) for 2 hours at 37° C. under the condition of 5% CO2. For 1 well, 2 μL of Lipofectamine 2000 was diluted in 50 μL of OPTI-MEM (Invitrogen) and allowed to stand at room temperature for 7 minutes (hereinafter referred to as Lipo2000-OPTI). For 1 well, 0.8 μg of human URAT1 expression vector was diluted in 50 μL of OPTI-MEM (Invitrogen) and combined gently with Lipo2000-OPTI. After standing at room temperature for 25 minutes, the mixture was added to COS7 cells at 100 μL/well. Furthermore, COS7 cells were cultured for 2 days at 37° C. under the condition of 5% CO2 and used for measuring inhibitory activity on the uptake.
# (2) Preparation of Test Compounds
# Test compounds were dissolved in DMSO (Wako) at 10 mM concentration and then diluted to 2 times higher concentration than intended with pre-treatment buffer (125 mM sodium gluconate, 4.8 mM potassium gluconate, 1.2 mM potassium dihydrogen phosphate, 1.2 mM magnesium sulfate, 1.3 mM calcium gluconate, 5.6 mM glucose, 25 mM Hepes, pH 7.4). Pre-treatment buffer without test compounds was used for control. In addition, an equal volume of pre-treatment buffer containing ^14C-labeled uric acid (American Radiolabeled Chemicals, Inc.) was added to test compounds and control, and finally assay buffer including 20 μM uric acid was prepared.
# (3) Method for Measurement
# All tests were performed on hot-plate at 37° C. Pre-treatment buffer and assay buffer were incubated at 37° C. and then used for assays. Medium was removed from plates, and 700 μL of pre-treatment buffer was added, and the cells were pre-incubated for 10 minutes. After repeating same step, pre-treatment buffer was removed, and assay buffer was added at 400 μL/well. The uptake reaction was carried out for 5 minutes. After terminating the reaction, assay buffer was rapidly removed, and the cells were washed twice with addition of ice-cold pre-treatment buffer at 1.2 mL/well. Then, the cells were lysed by addition of 0.2N sodium hydroxide at 300 μL/well. The lysed solutions were transferred into Picoplate (PerkinElmer), and Microscinti 40 (PerkinElmer) was added at 600 μL/well. After mixing, the radioactivity was counted in a liquid scintillation counter (PerkinElmer). The radioactivity in COS7 cells not transfected with URAT1 expression vector was also counted under the same condition as control. […] As a result, it was shown that all Examples 2, 6, 7, 12, 13, 15, 22 and 31 have over 80% inhibition in a concentration of 100 μM. Percent inhibition (%)=[1−(B−C)/(A−C)]×100 A: Radioactivity in control B: Radioactivity in the case of addition of test compounds C: Radioactivity in COST cells not transfected with URAT1 expression vector
# T1 sequence (P80457 whole entry): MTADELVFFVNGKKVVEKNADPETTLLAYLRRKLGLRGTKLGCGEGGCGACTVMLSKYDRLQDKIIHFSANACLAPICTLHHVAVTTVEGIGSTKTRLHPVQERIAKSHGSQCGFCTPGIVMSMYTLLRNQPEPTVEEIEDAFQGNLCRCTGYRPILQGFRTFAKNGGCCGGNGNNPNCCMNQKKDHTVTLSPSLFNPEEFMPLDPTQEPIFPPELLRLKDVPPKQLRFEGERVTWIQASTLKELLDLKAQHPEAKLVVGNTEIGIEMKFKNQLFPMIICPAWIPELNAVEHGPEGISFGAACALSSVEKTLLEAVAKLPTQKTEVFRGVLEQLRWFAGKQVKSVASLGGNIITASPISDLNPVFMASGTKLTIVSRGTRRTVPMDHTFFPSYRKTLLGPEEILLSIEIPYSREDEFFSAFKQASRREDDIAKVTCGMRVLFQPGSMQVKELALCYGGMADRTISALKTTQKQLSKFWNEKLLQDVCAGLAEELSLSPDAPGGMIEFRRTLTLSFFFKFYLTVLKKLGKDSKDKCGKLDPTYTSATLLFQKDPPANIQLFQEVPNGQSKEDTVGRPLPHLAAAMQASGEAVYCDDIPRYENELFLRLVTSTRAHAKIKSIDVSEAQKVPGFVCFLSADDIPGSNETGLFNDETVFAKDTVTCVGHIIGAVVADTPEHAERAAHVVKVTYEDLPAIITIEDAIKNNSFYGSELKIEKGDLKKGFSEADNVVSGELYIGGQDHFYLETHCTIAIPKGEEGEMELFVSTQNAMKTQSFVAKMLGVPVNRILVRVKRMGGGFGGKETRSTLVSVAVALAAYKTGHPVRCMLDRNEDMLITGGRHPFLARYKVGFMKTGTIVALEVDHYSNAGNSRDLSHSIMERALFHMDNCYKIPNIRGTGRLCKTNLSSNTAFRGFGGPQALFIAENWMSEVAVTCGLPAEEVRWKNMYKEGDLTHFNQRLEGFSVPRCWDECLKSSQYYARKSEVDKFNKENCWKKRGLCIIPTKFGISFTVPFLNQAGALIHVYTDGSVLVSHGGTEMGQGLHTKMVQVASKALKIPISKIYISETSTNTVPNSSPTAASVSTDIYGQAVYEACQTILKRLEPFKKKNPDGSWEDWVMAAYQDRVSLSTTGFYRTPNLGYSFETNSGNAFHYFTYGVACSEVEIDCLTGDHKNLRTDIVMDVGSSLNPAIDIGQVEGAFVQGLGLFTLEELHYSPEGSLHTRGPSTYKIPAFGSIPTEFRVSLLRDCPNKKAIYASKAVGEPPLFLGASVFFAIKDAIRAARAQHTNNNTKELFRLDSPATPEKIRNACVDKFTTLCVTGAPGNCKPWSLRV
IC50 [1] [nM],inhibition at 100 µM [2] [%],SMILES
11,,"N#Cc1cc(-c2cc(C(=O)O)ccn2)cc2ccccc12 [Example 1, 2-(4-Cyanonaphthalene-2-yl)isonicotinic acid]"
13,> 80,"N#Cc1cc(-c2cc(C(=O)O)c(O)cn2)cc2ccccc12 [Example 2, 2-(4-Cyanonaphthalene-2-yl)-5-hydroxyisonicotinic acid]"
20,,"N#Cc1cc(-c2ccc(C(=O)O)cc2)cc2ccccc12 [Example 4, 4-(4-Cyanonaphthalene-2-yl)benzoic acid]"
81,,"N#Cc1cc(-c2ccc(C(=O)O)cc2)nc2ccccc12 [Example 5, 4-(4-Cyanoquinoline-2-yl)benzoic acid]"
8,> 80,"N#Cc1cc(-c2ccc(C(=O)O)c(O)c2)nc2ccccc12 [Example 6, 4-(4-Cyanoquinoline-2-yl)-2-hydroxy-benzoic acid]"
7,> 80,"Cc1nc(-c2cc(C#N)c3ccccc3c2)sc1C(=O)O [Example 7, 2-(4-Cyanonaphthalene-2-yl)-4-methylthiazole-5-carboxylic acid]"
11,,"Cc1ccc2cc(-c3nc(C)c(C(=O)O)s3)cc(C#N)c2c1 [Example 8, 2-(4-Cyano-6-methylnaphthalene-2-yl)-4-methylthiazole-5-carboxylic acid]"
26,,Cc1ccc2c(C#N)cc(-c3nc(C)c(C(=O)O)s3)cc2c1 [Example 9]
4,> 80,Cc1nc(-c2cc(C#N)c3ccc(F)cc3c2)sc1C(=O)O [Example 12]
8,> 80,Cc1nc(-c2cc(C#N)c3cccc(F)c3c2)sc1C(=O)O [Example 13]
7,> 80,Cc1nc(-c2cc(C#N)c3c(C)ccc(F)c3c2)sc1C(=O)O [Example 15]
7,> 80,Cc1nc(-c2cc(C#N)c3c(F)cccc3c2)sc1C(=O)O [Example 22]
2,> 80,N#Cc1cc(-c2ncc(C(=O)O)s2)cc2ccccc12 [Example 31]
